In one series the test system is B16.F10. Put plainly: Growth inhibition by peptide-doxorubicin conjugates (MTT, 48 hours). Format: cell-based, murine. The note with it: Mus musculus, read-out: molar concentration giving 50% inhibition of the growth of the cells. Here is the method:
(§1) To evaluate the biological activity of peptide-doxorubicin conjugates, the inhibition of the growth of tumor cells in culture is measured.
(§2) The cells are sown the night before in 96-well plates at the rate of 10^3 cells per well.

The next series has as its system HH9. Described as above. Format: cell-based. The note with it: Homo sapiens, read-out: molar concentration giving 50% inhibition of the growth of the cells. Here is the method: as §1, §2
The subject of the next series is H1299. The description is as above. Type of series: cell-based. To be noted: Homo sapiens, NCI-H1299, read-out: molar concentration giving 50% inhibition of the growth of the cells. Here is the method: as §1, §2
Series [1] can be described thus: In vivo toxicity of peptide-doxorubicin conjugates (weight loss). The note with it: for Weight loss: relative to mice that received NaCl; for Weight of the mice: intravenous, peptide-doxorubicin conjugates.
Procedure: (§9) Injection of doxorubicin or doxorubicin-peptide by the intravenous route makes it possible to compare the toxicity of the different preparations. The estimate is made by the weight loss of the mice (5 mice per group). Two experiments were done: • Experiment 1: The mice received 200 μg per injection at 3-day intervals, or 600 μg of doxorubicin or the equivalent peptide-doxorubicin in all. The mice were weighed the day after the last injection. • Experiment 2: The mice received 2 injections of 200 -μg of doxorubicin or the peptide-doxorubicin equivalent at one week intervals, or 400 μg in all, and were weighed the day after the last injection.
(§10) The average weight loss is calculated in relation to the average weight of the mice that received NaCl.
In series [2] the test system is HH9 tumors. The series can be described thus: In vivo anti-tumor activity of peptide-doxorubicin conjugates. To be noted: day 60, total of 120 μg of doxorubicin or the equivalent, peritumoral injection. Further details: species or system nude mice. As to the method:
Nude mice are injected with 3×10^6 HH9 cells subcutaneously in the side. On day 19 after the cell implant, the tumors are measured, and 4 groups of 6 mice are formed that receive by peritumoral injection either NaCl, or natural doxorubicin, or 1047-doxorubicin, or HBP1-doxorubicin conjugates at the rate of 30 μg of doxorubicin or the equivalent of conjugates every two weeks. The tumors are measured and their volume calculated.

The subject of a further series is MCF7R. Put plainly: Growth inhibition by peptide-doxorubicin conjugates (MTT, 48 hours). Type of series: cell-based. The note with it: Homo sapiens, read-out: molar concentration giving 50% inhibition of the growth of the cells, resistant to doxorubicin. As to the method:
as §1, §2
(§3) It appears that, in vitro, the sensitivity of the cells to the peptide-doxorubicin conjugates is on the same order of magnitude as that of natural doxorubicin. The lines resistant to doxorubicin (K562R and MCF7R) require a greater concentration of doxorubicin.

The test system of another series is K562 R. The description is as above. Type of series: cell-based. The note with it: Homo sapiens, K-562R, read-out: molar concentration giving 50% inhibition of the growth of the cells, resistant to doxorubicin. Here is the method:
as §1, §2, §3

The nature of series [3]: ELISA fixation of biotinylated peptides on sensitized plates. Format: binding. To be noted: read-out: avidity (Kd), quantity of peptides necessary to obtain 50% fixation, Chondroitin B; Table 5. In general terms: In an ELISA, binding on a coated surface is turned into a signal by an enzyme label.
In series [4] the test system is H1299 cells. Put plainly: Internalization of covalent peptide-peroxidase conjugates. Type of series: cell-based, human. The note with it: Table 9; H1299; 0.2 μg/ml conjugate, 2 hours. The method in brief:
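Peptides coupled via C-terminal cysteine to maleimide-activated peroxidase; uncoupled peptide removed by ultrafiltration. H1299 cells incubated 2 h with increasing conjugate concentrations, washed, lysed; internalized peptide quantified from lysate peroxidase against a conjugate standard curve, as pg/10^3 cells.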

Series [5] in a line: ELISA fixation of biotinylated peptides on sensitized plates. Type of series: binding. To be noted: read-out: avidity (Kd), quantity of peptides necessary to obtain 50% fixation, Chondroitin C; Table 5.
Series [6] concerns H1299 cells. The series can be described thus: Internalization of biotinylated peptide/S-PO complexes. Type of series: cell-based, human. To be noted: peptide: S-PO complexes of 4:1, peptide concentration of 1 μg. The method in brief:
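Biotinylated peptides precomplexed 15 min with streptavidin- or avidin-peroxidase at 25:1 or 4:1 peptide:conjugate molar ratio in PBS, diluted in complete medium and incubated with H1299 cells for 4 h. After washing and lysis, internalised peroxidase quantified with ortho-dianisidine/H2O2 at 450 nm against an S-PO standard curve, as pg per 10^4 cells.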

Series [7] relates to HeLa cells. Put plainly: Heparin inhibition of internalization of peptide-peroxidase conjugates. Format: cell-based, human. Here is the method:
(§4) a) Heparin (50 μg/ml) was incubated with the cells for 1 hour before adding the peptide-peroxidase conjugates at 0.2 μg/ml for 2 hours. The cells were then lysed and the peroxidase dosed.
(§5) The quantity of heparin necessary to inhibit 50% penetration of the peptides coupled to peroxidase was evaluated with these two types of cells, by incubating the cells with the peptide-peroxidase conjugates with increasing concentrations of heparin. The results of inhibiting internalization of the peptides are expressed as the heparin concentration (μg/ml) in Table 2 below.

Series [8] is described as follows: ELISA fixation of biotinylated peptides on sensitized plates. Type of series: binding. To be noted: read-out: avidity (Kd), quantity of peptides necessary to obtain 50% fixation, Heparin; Table 5. Here is the method:
The capacity of peptides SEQ ID NO: 1 to 21 to attach themselves to DNA and heparin is evaluated on ELISA plates sensitized with DNA or heparin. Dilutions of biotinylated peptides are deposited on the plates and their fixation is shown using streptavidin conjugated with peroxidase. […] The avidity of each of the peptides for DNA or heparin is evaluated by the quantity (×10^−6 M) of peptides necessary to obtain 50% fixation.

Assay in series [9]: as above
The note with it: read-out: avidity (Kd), quantity of peptides necessary to obtain 50% fixation, Chondroitin A; Table 5. Type of series: binding.

The next series concerns 3T3 cells. Put plainly: Heparin inhibition of internalization of peptide-peroxidase conjugates. Type of series: cell-based, mouse. As to the method: as §4, §5
In the next series the test system is 3T3. The series can be described thus: Internalization of covalent peptide-peroxidase conjugates. Type of series: cell-based, mouse. To be noted: Table 9, 0.2 μg/ml conjugate, 2 hours. The procedure, abridged: (§6)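 Peptides coupled via C-terminal cysteine to maleimide-activated peroxidase, free peptide removed by ultrafiltration. Cells incubated 2 h with 0.2 μg/ml conjugate; peroxidase dosed in lysates, expressed as pg/10^3 cells.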

The test system of another series is HeLa. Described as above. Type of series: cell-based, human. To be noted: Table 9, 0.2 μg/ml conjugate, 2 hours. The procedure, abridged: as §6
Series [10] concerns Salmonella typhimurim (clinical isolate). Put plainly: Antibacterial activity of cationic peptides (MBC). Type of series: cell-based. To be noted: S. typhimurium. Here is the method:
(§7) The gram-positive bacterial strains are: Enterococcus faecalis (ATCC 29212), and Staphylococcus aureus (ATCC 25923) and the gram-negative strains are: Escherichia coli (ATCC 25922), Pseudomonas aeruginosa (ATCC 27853) and Salmonella typhimurim (clinical isolate), Salmonella typhiTy2 (WHO). The bacteria are cultured with shaking all night at 37° C., then recultured at a dilution of 1:50 in some fresh Luria-Bertani (LB) medium for 2 hours. The bacterial concentration is adjusted to […], and 50 μl is distributed in 96-well plates with an equal volume of peptides diluted half and half (256-0.5 μg/ml) in LB medium. […] To determine the minimum bactericide concentration, 10 μl from each well is spread on gelose plates in LB medium.
(§8) The results are expressed as the peptide concentration in MBC (μM).

For series [11] the following is noted: mouse, in vivo, iv.
Procedure: as §9, §10
The test system of series [12] is Salmonella typhiTy2 (WHO). The series can be described thus: microbe, parasite or virus in culture. The note with it: S. typhi-Ty2. Format: cell-based, S. typhi-Ty2. As to the method:
as §7, §8

Series [13] concerns Pseudomonas aeruginosa (ATCC 27853). Put plainly: microbe, parasite or virus in culture. The note with it: ATCC 27853. Type of series: cell-based.
Series [14] deals with Escherichia coli (ATCC 25922). The series can be described thus: microbe, parasite or virus in culture. Type of series: cell-based. The note with it: ATCC 25922; read-out: MBC.
Series [15] concerns Staphylococcus aureus (ATCC 25923). The series can be described thus: microbe, parasite or virus in culture. Type of series: cell-based. The note with it: ATCC 25923.
Series [16] concerns Enterococcus faecalis (ATCC 29212). The series can be described thus: microbe, parasite or virus in culture. Type of series: cell-based. The note with it: ATCC 29212.
Series [17] relates to Escherischia coli (ATCC25922). The series can be described thus: Activity of lysozyme coupled to peptides (MBC). To be noted: E. coli. Format: cell-based, Escherichia coli. As to the method: The […] bacterial strain Escherischia coli (ATCC25922) is cultured until the semi-logarithmic phase in Luria-Bertani (LB) medium. The bacteria are collected by centrifugation and resuspended in 1% bacto-peptone medium at a concentration of 5×10^5 cfu/ml (colony forming unit/ml). Lysozyme or the peptide-lysozyme conjugates are diluted half and half (256 to 0.5 μg/ml) in bacto-peptone medium, and 50 μl is distributed in 96-well plates. 50 μl of the bacterial dilution is then added to each well. After 16 hours of incubation at 37° C., 10 μl from each well is smeared on gelose plates in LB medium.
Table 28 reports the inhibition of the growth of E. coli (MBC μg/ml).

Series [18] deals with HH9 tumors. Further details: species or system nude mice. The note with it: mouse, in vivo. As to the method: The nude mice received subcutaneous transplants of HH9 tumor cells as described above. On day 9 after the transplant, the mice received twice a week, by peritumoral injection, 100 μg of RNase, or 65 μg of peptide (HBP3)2 or 65 μg of peptide (HBP3)2+100 μg of RNase, or 100 μg of peptide conjugate (HBP3)2-RNase or HBP6-RNase conjugate. On day 26, the mice were killed and their tumors weighed.

Series [19] has as its system HeLa cells. Put plainly: Penetration of RNase A transported by peptide-F(ab′)2 anti-RNase transporter. Format: cell-based, human.
Procedure: Two mg of antibody F(ab′)2 anti-RNase in 1 ml of potassium phosphate buffer 0.1 M pH 7.4 are added to 110 μg of SMCC [succinimidyl 4-(N-maleimidomethyl)cyclohexane-1-carboxylate] in 11 μl of dimethylsulfoxide. The solution is incubated for 45 minutes at laboratory temperature. The excess reagent is eliminated by centrifugation on ultrafiltration membranes (cutoff threshold=10,000 Da, Vivascience), followed by three washings in sodium phosphate buffer 10 mM, pH 7 containing 01.5 M of NaCl and 5 mM of EDTA. The coupling with the peptide is then done in a molar ratio of 6 peptides to 1 F(ab′)2 in the sodium phosphate buffer 10 mM, pH 7, containing 0.5 M of NaCl and 5 mM of EDTA for three hours at laboratory temperature. Then, the excess uncoupled peptide is totally eliminated by centrifugation on ultrafiltration membranes, as in the preceding step. These transporters [anti-RNase peptide-F(ab′)2)] are added to ribonuclease A in some complete culture medium, and the solution is incubated for 1 hour at laboratory temperature. The molar ratio of this reaction is 2 RNase/1 F(ab′)2. […]
To measure the quantity of RNase A internalized, the cells are trypsinized, transferred into microtubes and counted. […]

Where two headings read alike, the source gives them in different places. Marks after values point to notes of the source that are not given here. Where no end group is shown, it is not given here.

Procedure for HH9 cells: The cells are sown at night on plates with 96 wells, at the rate of 10^3 cells per well.
The next day, the supernatant is suctioned off and replaced with 100 μl of medium containing succession dilutions of RNase A-vector or natural RNase A and the culture continued for 72 hours.
The wells are then filled with 50 μl of a solution of MTT (3-(4,5-dimethylthiazol-2-yl)-2,5-diphenyl tetrazolium bromide) at 1 mg/ml in the culture medium and cultivated for 4 hours.
The supernatant is removed, and 100 μl of dimethylsulfoxide is added to the wells. After the crystals dissolve, the coloration is read at 550 nm.
The results are calculated as a percentage of the average optic density obtained in the wells of cells containing the dilutions of the samples being tested and the optical density of the wells that received only medium.
The different peptide-RNase conjugates were tested on varied cell lines.

For the molecule `COc1cccc2c1C(=O)c1c(O)c3c(c(O)c1C2=O)C[C@@](O)(C(=O)CO)C[C@@H]3O[C@H]1C[C@H](N)[C@H](O)[C@H](C)O1` [Doxorubicin (natural), Doxorubicin], the IC50 was 100 nM in the series on B16.F10; 300 nM in the series on HH9; 300 nM in the series on H1299; 200000 nM in the series with MCF7R; 3000 nM in the series with K562 R. Further, the Weight loss in series [1] (Exp. 1: 600 μg in all) is reported as 31* %; in series [1] (Exp. 1: 600 μg in all, listed as natural doxorubicin), 31%; in [1] (Exp. 2: 400 μg in all), 15%. Also, the “Weight of the mice” value in [1] (Exp. 1: 600 μg of doxorubicin or equivalent in all) is 16.06; in [1] (Exp. 2: 400 μg of doxorubicin or equivalent in all), 26.7. Also, the tumor growth inhibition in the series with HH9 tumors [2] was found to be 79%.

GRPRESGKKRKRKRLKP [SEQ ID NO: 21]: the Kd is 110 nM in series [3], 12 nM in series [5], 16 nM in series [8] and 135 nM in series [9]. Besides, the “Internalization of Peptide-peroxidase” value worked out at 21.9 pg/10^3 cells with H1299 cells [4], 83.7 pg/10^3 cells in the series with 3T3 and 13.2 pg/10^3 cells in the series on HeLa. The molecule further returned a S-PO internalized in the series on H1299 cells [6] of 1680 pg/10^4 cells. The “heparin concentration necessary to inhibit 50% penetration of the peptides coupled to peroxidase” value with HeLa cells [7] came to 2.3 µg/mL; in the series on 3T3 cells it was 4.1 µg/mL.

For the molecule KHLKKHLKKHLK [SEQ ID NO: 38], the MBC in series [10], in [12], in series [13], in series [14], in [15] and in series [16] was above 170 µM in each case. Moreover, the “Weight of the mice” value in series [11] worked out at 30.

Turning to “Natural lysozyme: lysozyme, a muraminidase, unconjugated”, the “minimal bactericide concentration (MBC), inhibits 75% of the growth” value in series [17] is above 256 µg/mL.

Regarding SERKKRRRESRKKRRRES [SEQ ID NO: 26], in the series on HH9 tumors [18], the “Inhibition of the growth of the tumors” value is 10%.

B1: natural RNase A: bovine Ribonuclease A, unconjugated (protein)
chain: KETAAAKFERQHMDSSTSAASSSNYCNQMMKSRNLTKDRCKPVNTFVHESLADVQAVCSQKNVACKNGQTNCYQSYSTMSITDCRETGSSKYPNCAYKTTQANKHIIVACEGNPYVPVHFDASV
As to B1, the “Quantity of RNase internalized” value in the series with HeLa cells [19] was 0 pg/10^4 cells. In addition, in the series with HH9 cells, the cytotoxic activity result was “no cytotoxic activity”.

The values above are taken from patent publication US8003595B2, “Amino acid sequences facilitating penetration of a substance of interest into cells and/or cell nuclei” (Cellectis, priority 2000, dated 2011).
